Activity calls are given as the source filed them. No cut-off for these calls is given here.
Assays:
[1] = biological target: Tyrosine-protein phosphatase non-receptor type 6 (Homo sapiens) (UniProt P29350); assay: Increase of GST-tagged full length Shp1 activity expressed in Escherichia coli BL21 at 10 uM after 30 mins
[2] = biological target: Dual specificity protein phosphatase 3 (Homo sapiens) (UniProt P51452); assay: Increase of GST-tagged full length Vhr activity expressed in Escherichia coli BL21 at 10 uM after 30 mins
[3] = biological target: T1, Tyrosine-protein phosphatase non-receptor type 7 (Homo sapiens) (UniProt P35236); assay: Increase of GST-tagged full length HePTP activity expressed in Escherichia coli BL21 at 10 uM after 30 mins
T1 sequence (whole entry): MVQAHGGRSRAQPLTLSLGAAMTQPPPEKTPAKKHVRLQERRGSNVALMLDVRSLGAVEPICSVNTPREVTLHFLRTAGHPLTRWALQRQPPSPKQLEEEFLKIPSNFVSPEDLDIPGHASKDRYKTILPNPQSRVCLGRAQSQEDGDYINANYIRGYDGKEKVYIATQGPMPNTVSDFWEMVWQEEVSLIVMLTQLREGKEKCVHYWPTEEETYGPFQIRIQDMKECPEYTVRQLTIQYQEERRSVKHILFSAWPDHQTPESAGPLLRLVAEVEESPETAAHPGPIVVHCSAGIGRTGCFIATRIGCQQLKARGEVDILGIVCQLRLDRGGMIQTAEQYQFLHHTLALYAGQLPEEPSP

Tyrosine-protein phosphatase non-receptor type 6 (Homo sapiens), sequence (P29350 whole entry): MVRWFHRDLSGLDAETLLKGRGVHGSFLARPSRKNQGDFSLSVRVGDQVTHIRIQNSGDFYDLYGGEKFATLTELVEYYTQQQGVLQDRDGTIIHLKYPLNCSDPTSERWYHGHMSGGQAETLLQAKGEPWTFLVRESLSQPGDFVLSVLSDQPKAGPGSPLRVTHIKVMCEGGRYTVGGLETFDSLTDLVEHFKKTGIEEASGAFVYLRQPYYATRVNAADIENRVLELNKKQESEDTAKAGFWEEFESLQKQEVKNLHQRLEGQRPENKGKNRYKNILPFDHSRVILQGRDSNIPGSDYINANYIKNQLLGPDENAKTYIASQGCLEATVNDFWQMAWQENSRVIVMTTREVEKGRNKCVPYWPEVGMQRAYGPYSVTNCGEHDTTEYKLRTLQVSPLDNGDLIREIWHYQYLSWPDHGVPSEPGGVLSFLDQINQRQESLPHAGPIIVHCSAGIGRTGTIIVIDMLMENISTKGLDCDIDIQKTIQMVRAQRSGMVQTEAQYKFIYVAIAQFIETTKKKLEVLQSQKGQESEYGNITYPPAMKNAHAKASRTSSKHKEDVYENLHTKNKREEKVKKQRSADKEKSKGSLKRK
Dual specificity protein phosphatase 3 (Homo sapiens), sequence (P51452 whole entry, looked up): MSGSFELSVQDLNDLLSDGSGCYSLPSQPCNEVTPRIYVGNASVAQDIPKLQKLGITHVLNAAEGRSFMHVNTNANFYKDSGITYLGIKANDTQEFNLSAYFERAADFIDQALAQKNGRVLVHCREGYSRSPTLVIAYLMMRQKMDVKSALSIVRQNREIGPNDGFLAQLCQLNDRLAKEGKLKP

- Activity [1]: inactive
- Activity [2]: inactive
- Activity [3]: inactive
Structure (SMILES): CC1(C)CC[C@]2(C(=O)O)CC[C@]3(C)C(=CC[C@@H]4[C@@]5(C)CC[C@H](O)C(C)(C)[C@@H]5CC[C@]43C)[C@@H]2C1

Source: ChEMBL document CHEMBL1641441, “A novel screening model for the molecular drug for diabetes and obesity based on tyrosine phosphatase Shp2” (Bioorg Med Chem Lett, 2011)
